Measurements taken from US20260027131A1, “PRODRUGS, PRODRUG COMPOSITIONS AND RELATED METHODS” (Praesidia Biotherapeutics Inc., priority 2022, published 2026).
Several values for one entry are separate records, joined by “and”; a condition that tells them apart may be missing. Equal values may be shown once.

How the values were obtained:
[1] = Chemical stability at pH 4.5 and pH 7.4 in PBS; type: physicochemical; details: for Chemical Stability, pH 4.5: PBS pH 4.5, 37° C.; for Chemical Stability, pH 4.5 / Chemical Stability, pH 7.4: 5 μM, up to 240 min; for Chemical Stability, pH 7.4: PBS pH 7.4, 37° C.
Protocol: The assay was performed in duplicate. […] Samples were incubated at 37° C. at 600 rpm.

Rat plasma stability = type: in vitro ADME; details: rat; for half-life at 5 μM: plasma
Protocol: Rat and human plasma were obtained from qualified vendors. […] The assay was performed in duplicate.

in vitro = details: human, plasma
Protocol: (§1) Rat and human plasma were obtained from qualified vendors. 5 μL of 500 μM of the test article solution was added to 495 μL of pre-incubated human or rat plasma to reach a final concentration of 5 μM. The final concentration of organic solvents was not more than 0.5%. The assay was performed in duplicate. The reaction samples were incubated in a 37° C. water bath with shaking at approximately 60 rpm. 50 μL of the reaction samples were collected at 0, 30, 60, 120 and 180 minutes. The reaction was stopped by adding 300 μL of room temperature quench solution (acetonitrile containing internal standards (IS, 200 nM labetalol, 100 nM alprazolam and 2 μM ketoprofen)). The samples were vortexed for 5 minutes followed by centrifugation of the samples at 3,220 g for 30 minutes at room temperature to precipitate the protein. 100 μL of the supernatant was transferred to a new plate and diluted with 100 μL or 200 μL water according to the LC/MS signal response and peak shape. The samples were mixed well and analyzed using LC/MS/MS. The remaining percentage of parent drug versus reaction time was used to calculate the t1/2 value.

DPP4 = DPP4 (Homo sapiens, UniProt P27487); test: in vitro; details: recombinant enzyme
Protocol: Aliquots were withdrawn at 0, 60 and 120 minutes from the reaction mixture and quenched with 20-volumes of cold acetonitrile. […] Glycine-proline p-nitroanilide was used as a positive control for this assay.

[2] = target: T1, Glucocorticoid receptor (GR) (Homo sapiens, UniProt P04150); test: TR-FRET GR competitive binding assay; details: 0.1 μM
T1 sequence (P04150 1-777): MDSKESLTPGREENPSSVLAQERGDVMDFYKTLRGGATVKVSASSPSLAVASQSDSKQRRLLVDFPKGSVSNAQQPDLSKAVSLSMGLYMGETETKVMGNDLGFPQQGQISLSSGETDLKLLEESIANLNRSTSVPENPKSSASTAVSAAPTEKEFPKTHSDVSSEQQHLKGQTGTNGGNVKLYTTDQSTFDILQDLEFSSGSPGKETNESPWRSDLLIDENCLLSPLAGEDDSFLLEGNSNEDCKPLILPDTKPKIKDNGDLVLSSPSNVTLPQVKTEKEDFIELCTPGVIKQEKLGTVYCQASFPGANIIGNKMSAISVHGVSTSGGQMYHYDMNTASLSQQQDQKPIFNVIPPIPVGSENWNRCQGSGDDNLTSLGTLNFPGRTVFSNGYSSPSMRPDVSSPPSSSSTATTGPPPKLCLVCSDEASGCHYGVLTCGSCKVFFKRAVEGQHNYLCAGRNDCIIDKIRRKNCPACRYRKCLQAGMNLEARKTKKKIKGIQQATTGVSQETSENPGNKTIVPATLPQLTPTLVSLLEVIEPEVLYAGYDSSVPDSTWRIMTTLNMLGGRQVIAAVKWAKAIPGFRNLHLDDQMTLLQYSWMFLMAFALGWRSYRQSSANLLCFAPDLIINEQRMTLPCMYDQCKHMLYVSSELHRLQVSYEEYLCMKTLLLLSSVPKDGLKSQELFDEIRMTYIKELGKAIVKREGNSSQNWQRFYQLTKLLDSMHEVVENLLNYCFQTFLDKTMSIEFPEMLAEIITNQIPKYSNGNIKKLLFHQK
Protocol: Glucocorticoid receptor (GR) binding of prodrugs was determined using TR-FRET GR competitive binding assay. Three-point (0.1, 1 and 10 μM) binding was evaluated for each prodrug.

[3] = Pharmacokinetic studies in rats: plasma and lung; details: rat, in vivo, iv
Protocol: Six to eight weeks old Sprague-Dawley rats were procured from a qualified provider. Test compounds were introduced in rats by a single intravenous administration. […] Blood samples (0.1, 0.2 or 0.5 mL) were collected with a 1 mL syringe containing anticoagulants K2EDTA. Blood samples were centrifuged to obtain plasma for analysis. […] After collection at each time point, lung samples were frozen at −75° C. Prior to analysis, a portion of lung sample was weighed and homogenized with phosphate buffer saline. […] Data analysis and pharmacokinetic parameters were generated using WinNonlin software.

[4] = Metabolic stability in rat liver microsomes; type: in vitro ADME; details: rat, microsomes, 1 μM
Protocol: Rat liver microsomes were obtained from qualified vendors and metabolic stability of the test compound was determined at 1 μM. The compound was incubated at 37° C. with 0.5 mg microsome/mL in the buffer in the presence of 1 mM NADPH. Aliquots of 50 μL were taken from the reaction solution at 0, 15, 30, 45 and 60 minutes. […] All samples were analyzed in duplicates.

[5] = read-out: Rat Plasma Stability t½

Sequence of DPP4 (P27487 whole entry, species assumed): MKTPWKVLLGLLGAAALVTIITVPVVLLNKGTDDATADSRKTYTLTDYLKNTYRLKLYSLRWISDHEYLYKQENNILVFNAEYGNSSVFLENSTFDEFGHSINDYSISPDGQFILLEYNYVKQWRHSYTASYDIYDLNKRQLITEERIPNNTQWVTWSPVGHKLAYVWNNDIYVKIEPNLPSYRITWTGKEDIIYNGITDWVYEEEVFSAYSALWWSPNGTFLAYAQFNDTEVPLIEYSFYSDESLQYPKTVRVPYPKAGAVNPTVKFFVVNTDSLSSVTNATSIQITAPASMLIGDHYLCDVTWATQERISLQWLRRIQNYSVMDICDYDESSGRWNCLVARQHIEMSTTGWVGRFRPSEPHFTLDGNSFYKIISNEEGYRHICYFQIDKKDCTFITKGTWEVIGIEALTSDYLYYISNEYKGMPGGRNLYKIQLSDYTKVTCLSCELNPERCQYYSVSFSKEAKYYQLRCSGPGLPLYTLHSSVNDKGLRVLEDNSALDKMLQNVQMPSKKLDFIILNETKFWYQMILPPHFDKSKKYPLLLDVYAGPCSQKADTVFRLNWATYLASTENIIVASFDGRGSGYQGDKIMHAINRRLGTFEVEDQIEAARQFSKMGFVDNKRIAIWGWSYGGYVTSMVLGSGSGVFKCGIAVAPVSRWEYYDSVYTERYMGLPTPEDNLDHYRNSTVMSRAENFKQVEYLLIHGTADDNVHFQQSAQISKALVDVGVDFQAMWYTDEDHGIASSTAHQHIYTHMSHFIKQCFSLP
Protocol for Caco-2 cell monolayers: CaCO-2 cells were cultured, and a monolayer was developed in-house in 96 well-plates over 18 days using standard protocol. The monolayer was tested for the integrity of the cell monolayer before using.
Test compounds were added to the transwell insert (apical compartment) to determine the rate of drug transport in the apical to basolateral direction. To determine the rate of drug transport in the basolateral to apical direction, the test compound was added to the receiver plate wells (basolateral compartment). Appropriate amount of HBSS (10 mM HEPES, pH 7.4) was added in both compartments for a final volume of 200 μL. The plates were incubated at 37° C. with shaking at 150 rpm on a rotary shaker for 2 hours. At the end of the transport period, 50 μL from the apical and basolateral wells were collected and 4 volume of cold acetonitrile containing internal standards (IS: 100 nM alprazolam, 200 nM labetalol, and 2 μM ketoprofen) was added to each sample to terminate the reaction. The samples were vortexed and centrifuged at 3,800 g for 20 minutes. An aliquot of 150 μL of the supernatant was used for LC/MS/MS analysis. All samples were analyzed in duplicates. Samples were analyzed through LC/MS/MS for estimating the permeability and efflux of the compounds across Caco-2 cell monolayers.
Protocol for Human plasma stability: as §1

SMILES	half-life at 5 μM (Rat plasma stability) [h]	half-life at 5 μM (in vitro) [h]	also measured
C[C@@H]1CC2[C@@H]3CCC4=CC(=O)C=C[C@]4(C)[C@@]3(F)[C@@H](O)C[C@]2(C)[C@@]1(O)C(=O)COC(=O)c1cccc(F)c1NC(=O)[C@@H](N)Cc1ccccc1.Cl (some centres unmarked) [Compound 7]			Chemical Stability, pH 4.5 [1]: Yes; Chemical Stability, pH 7.4 [1]: Yes
CC(C)[C@H](N)C(=O)NCCc1cscc1C(=O)OCC(=O)[C@@]1(O)[C@H](C)C[C@H]2[C@@H]3CCC4=CC(=O)C=C[C@]4(C)[C@@]3(F)[C@@H](O)C[C@@]21C [Compound 37]	> 4	> 4	
CC(NC(=O)[C@@H](N)Cc1ccccc1)c1cscc1C(=O)OCC(=O)[C@@]1(O)[C@H](C)C[C@H]2[C@@H]3CCC4=CC(=O)C=C[C@]4(C)[C@@]3(F)[C@@H](O)C[C@@]21C (some centres unmarked) [Compound 36]	> 4	> 4	
CNC(C(=O)N1CCCC1C(=O)NCC(C)(C)C(C)C(=O)OCC(=O)[C@@]1(O)[C@H](C)C[C@H]2[C@@H]3CCC4=CC(=O)C=C[C@]4(C)[C@@]3(F)[C@@H](O)C[C@@]21C)C(C)C (some centres unmarked) [Compound 32]			half-life at 10 μM (DPP4): 3.57 h
COc1cc(NC(=O)[C@@H](N)C(C)C)c(C(=O)OCC(=O)[C@@]2(O)[C@H](C)CC3[C@@H]4CCC5=CC(=O)C=C[C@]5(C)[C@@]4(F)[C@@H](O)C[C@@]32C)c(OC(C)C)c1 (some centres unmarked) [Compound 14]	> 4	> 4	
C[C@@H]1C[C@H]2[C@@H]3CCC4=CC(=O)C=C[C@]4(C)[C@@]3(F)[C@@H](O)C[C@]2(C)[C@@]1(O)C(=O)COC(=O)[C@@H]1CCCN1 [Comparative Compound 3, reference compound]		0.417	
CC(CC(=O)OCC(=O)[C@@]1(O)[C@H](C)C[C@H]2[C@@H]3CCC4=CC(=O)C=C[C@]4(C)[C@@]3(F)[C@@H](O)C[C@@]21C)c1ccccc1NC(=O)[C@@H](N)C(C)C.Cl (some centres unmarked) [Compound 18]			GR Binding Data [2]: 46%
COc1cc(N(C)C)cc(NC(=O)[C@@H](N)Cc2ccccc2)c1C(=O)OCC(=O)[C@@]1(O)[C@H](C)CC2[C@@H]3CCC4=CC(=O)C=C[C@]4(C)[C@@]3(F)[C@@H](O)C[C@@]21C (some centres unmarked) [Compound 15]	> 4	> 4	
CC(NNC(=O)C1CCCN1)C(C)C(=O)OCC(=O)[C@@]1(O)[C@H](C)C[C@H]2[C@@H]3CCC4=CC(=O)C=C[C@]4(C)[C@@]3(F)[C@@H](O)C[C@@]21C (some centres unmarked) [Compound 28]	2.45	> 4	
CC(C)[C@H](NC(=O)[C@@H]1CCCN1C(=O)CN)C(=O)Nc1ccc(C(=O)OCC(=O)[C@@]2(O)[C@H](C)C[C@H]3[C@@H]4CCC5=CC(=O)C=C[C@]5(C)[C@@]4(F)[C@@H](O)C[C@@]32C)cc1 [Compound 3]			half-life at 10 μM (DPP4): 2.53 h
CC(C)[C@H](N)C(=O)Nc1ccc([C@H](C)NC(=O)OCC(=O)[C@@]2(O)[C@H](C)C[C@H]3[C@@H]4CCC5=CC(=O)C=C[C@]5(C)[C@@]4(F)[C@@H](O)C[C@@]32C)cc1 [Compound 24]	> 4	> 4	
COc1cc(NC(=O)[C@@H](N)C(C)C)c(C(=O)OCC(=O)[C@@]2(O)[C@H](C)CC3[C@@H]4CCC5=CC(=O)C=C[C@]5(C)[C@@]4(F)[C@@H](O)C[C@@]32C)c(OC)c1 (some centres unmarked) [Compound 11]	> 4	> 4	
COc1cc(NC(=O)[C@@H](N)Cc2ccccc2)c(C(=O)OCC(=O)[C@@]2(O)[C@H](C)CC3[C@@H]4CCC5=CC(=O)C=C[C@]5(C)[C@@]4(F)[C@@H](O)C[C@@]32C)c(OC)c1 (some centres unmarked) [Compound 12]	> 4	> 4	
CC(C)C(N)C(=O)N1CCCC1C(=O)NCC(C)(C)C(C)C(=O)OCC(=O)[C@@]1(O)[C@H](C)C[C@H]2[C@@H]3CCC4=CC(=O)C=C[C@]4(C)[C@@]3(F)[C@@H](O)C[C@@]21C (some centres unmarked) [Compound 31]	> 4	> 4	Rat plasma stability (Rat plasma stability; 5 μM): >240; Chemical stability [1]: Yes; half-life at 10 μM (DPP4): 2.78 h; Lung/Plasma % of Dex [3]: 74% and 100% and 78%; RLM [4]: 63; Permeability A-B (Caco-2 cell monolayers): A-B = 0.065 × 10^−6, cm/s; Permeability B-A (Caco-2 cell monolayers): B-A = 11 × 10^−6, cm/s
COc1cc(N(C)C)cc(NC(=O)[C@H](Cc2ccccc2)N(C)C)c1C(=O)OCC(=O)[C@@]1(O)[C@H](C)CC2[C@@H]3CCC4=CC(=O)C=C[C@]4(C)[C@@]3(F)[C@@H](O)C[C@@]21C (some centres unmarked) [Compound 16]	> 4	> 4	
CC(NC(C)[C@@H](N)C(C)C)c1cscc1C(=O)OCC(=O)[C@@]1(O)[C@H](C)C[C@H]2[C@@H]3CCC4=CC(=O)C=C[C@]4(C)[C@@]3(F)[C@@H](O)C[C@@]21C (some centres unmarked) [Compound 35]	> 4	> 4	
CC(C)C(N)C(=O)N1CCCC1C(=O)NCC1(CC(=O)OCC(=O)[C@@]2(O)[C@H](C)C[C@H]3[C@@H]4CCC5=CC(=O)C=C[C@]5(C)[C@@]4(F)[C@@H](O)C[C@@]32C)CC1 (some centres unmarked) [Compound 34]	> 4	> 4	
CC(C)[C@H](N)C(=O)Nc1ccc(C(=O)OCC(=O)[C@@]2(O)[C@H](C)C[C@H]3[C@@H]4CCC5=CC(=O)C=C[C@]5(C)[C@@]4(F)[C@@H](O)C[C@@]32C)cc1 [Compound 1]		> 4	
CC(C)[C@H](N)C(=O)Nc1ccc(C(=O)OCC(=O)[C@@]2(O)[C@H](C)C[C@H]3[C@@H]4CCC5=CC(=O)C=C[C@]5(C)[C@@]4(F)[C@@H](O)C[C@@]32C)cc1F [Compound 6]	> 4	> 4	
CC(C)[C@H](N)C(=O)Nc1cscc1CC(=O)OCC(=O)[C@@]1(O)[C@H](C)C[C@H]2[C@@H]3CCC4=CC(=O)C=C[C@]4(C)[C@@]3(F)[C@@H](O)C[C@@]21C.Cl [Compound 38]			half-life at 5 μM (Rat plasma stability; [5]): > 4 h; Chemical Stability, pH 4.5 [1]: Yes; Chemical Stability, pH 7.4 [1]: Yes; half-life at 5 μM (Human plasma stability): > 4 h
C[C@@H]1C[C@H]2[C@@H]3CCC4=CC(=O)C=C[C@]4(C)[C@@]3(F)[C@@H](O)C[C@]2(C)[C@@]1(O)C(=O)CO [Dexamethasone, reference compound]			GR Binding Data [2]: 85%
COc1cc(Br)c(C(=O)OCC(=O)[C@@]2(O)[C@H](C)CC3[C@@H]4CCC5=CC(=O)C=C[C@]5(C)[C@@]4(F)[C@@H](O)C[C@@]32C)c(NC(=O)[C@@H](N)C(C)C)c1 (some centres unmarked) [Compound 13]	> 4	> 4	
CC(C)C(N)C(=O)OCC(=O)[C@@]1(O)[C@H](C)C[C@H]2[C@@H]3CCC4=CC(=O)C=C[C@]4(C)[C@@]3(F)[C@@H](O)C[C@@]21C (some centres unmarked) [Comparative Compound 1, reference compound]		2.88	
C[C@@H]1C[C@H]2[C@@H]3CCC4=CC(=O)C=C[C@]4(C)[C@@]3(F)[C@@H](O)C[C@]2(C)[C@@]1(O)C(=O)COC(=O)NCc1ccccc1NC(=O)[C@@H](N)Cc1ccccc1.Cl [Compound 23]			half-life at 5 μM (Rat plasma stability; [5]): > 4 h; half-life at 5 μM (Human plasma stability): > 4 h
